Laboratory results published in patent US8729082B2, “Substituted imidazoquinoxalines” (Bayer Intellectual Property GmbH, priority 2009, dated 2014).

molecular target: T1, human kinase Mps-1 (Homo sapiens, UniProt P33981); assay: Mps-1 kinase assay (HTRF); type: biochemical; conditions: lowATP; mean; read-out: Mps1 lowATP mean IC50
T1 construct: N-terminally GST-tagged human full length recombinant Mps-1 kinase; purchased Invitrogen, Karslruhe, Germany PV4071
T1 sequence (P33981 1-857): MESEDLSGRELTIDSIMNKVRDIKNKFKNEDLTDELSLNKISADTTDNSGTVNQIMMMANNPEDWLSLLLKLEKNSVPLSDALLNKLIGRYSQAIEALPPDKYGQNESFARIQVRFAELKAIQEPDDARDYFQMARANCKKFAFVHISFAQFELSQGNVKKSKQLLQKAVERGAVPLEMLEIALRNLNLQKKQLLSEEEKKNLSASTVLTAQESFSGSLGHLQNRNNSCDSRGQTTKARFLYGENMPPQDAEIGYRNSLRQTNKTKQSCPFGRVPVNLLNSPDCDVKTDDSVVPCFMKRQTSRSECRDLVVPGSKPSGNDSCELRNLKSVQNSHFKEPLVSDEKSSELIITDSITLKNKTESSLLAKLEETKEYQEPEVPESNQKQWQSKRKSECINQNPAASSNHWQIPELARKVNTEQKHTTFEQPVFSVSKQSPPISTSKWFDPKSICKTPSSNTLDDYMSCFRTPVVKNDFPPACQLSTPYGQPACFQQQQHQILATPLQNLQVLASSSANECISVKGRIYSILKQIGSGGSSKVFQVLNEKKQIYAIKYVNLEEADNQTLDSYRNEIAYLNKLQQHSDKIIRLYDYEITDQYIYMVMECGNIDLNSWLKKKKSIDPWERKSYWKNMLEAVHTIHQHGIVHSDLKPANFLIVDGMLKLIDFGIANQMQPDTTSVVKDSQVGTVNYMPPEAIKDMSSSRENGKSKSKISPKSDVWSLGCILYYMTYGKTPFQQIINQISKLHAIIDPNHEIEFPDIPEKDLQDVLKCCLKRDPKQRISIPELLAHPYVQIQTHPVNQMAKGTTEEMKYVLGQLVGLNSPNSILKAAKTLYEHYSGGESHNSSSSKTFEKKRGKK
Procedure: The human kinase Mps-1 phosphorylates a biotinylated substrate peptide. Detection of the phosphorylated product is achieved by homogenous time-resolved fluorescence resonance energy transfer (HTRF) from Europium-labelled anti-phospho-Serine/Threonine antibody as donor to streptavidin labelled with cross-linked allophycocyanin (SA-XLent) as acceptor. Compounds are tested for their inhibition of the kinase activity.
N-terminally GST-tagged human full length recombinant Mps-1 kinase (purchased from Invitrogen, Karslruhe, Germany, cat. no PV4071) was used. As substrate for the kinase reaction a biotinylated peptide of the amino-acid sequence PWDPDDADITEILG (C-terminus in amide form, purchased from Biosynthan GmbH, Berlin) was used.
For the assay 50 nl of a 100-fold concentrated solution of the test compound in DMSO was pipetted into a black low volume 384 well microtiter plate (Greiner Bio-One, Frickenhausen, Germany), 2 μl of a solution of Mps-1 in assay buffer [0.1 mM sodium-ortho-vanadate, 10 mM MgCl2, 2 mM DTT, 25 mM Hepes pH 7.7, 0.05% BSA, 0.001% Pluronic F-127] were added and the mixture was incubated for 15 min at 22° C. to allow pre-binding of the test compounds to Mps-1 before the start of the kinase reaction. Then the kinase reaction was started by the addition of 3 μl of a solution of 16.7 μM ATP and 1.67 μM peptide in assay buffer and the resulting mixture was incubated for a reaction time of 60 min at 22° C. The concentration of Mps-1 in the assay was adjusted to the activity of the enzyme lot and was chosen appropriate to have the assay in the linear range, typical enzyme concentrations were in the range of about 1 nM (final conc. in the 5 μl assay volume). The reaction was stopped by the addition of 3 μl of a solution of HTRF detection reagents (100 mM Hepes pH 7.4, 0.1% BSA, 40 mM EDTA, 140 nM Streptavidin-XLent [#61GSTXLB, Fa. Cis Biointernational, Marcoule, France], 1.5 nM anti-phospho(Ser/Thr)-Europium-antibody [#AD0180, PerkinElmer LAS, Rodgau-Jügesheim, Germany].
The resulting mixture was incubated 1 h at 22° C. to allow the binding of the phosphorylated peptide to the anti-phospho(Ser/Thr)-Europium-antibody. Subsequently the amount of phosphorylated substrate was evaluated by measurement of the resonance energy transfer from the Europium-labelled anti-phospho(Ser/Thr) antibody to the Streptavidin-XLent. Therefore, the fluorescence emissions at 620 nm and 665 nm after excitation at 350 nm was measured in a HTRF reader, e.g. a Rubystar (BMG Labtechnologies, Offenburg, Germany) or a Viewlux (PerkinElmer LAS, Rodgau-Jügesheim, Germany). The ratio of the emissions at 665 nm and at […] was taken as the measure for the amount of phosphorylated substrate. The data were normalised (enzyme reaction without inhibitor=0% inhibition, all other assay components but no enzyme=100% inhibition).

Going from O=C(NC1CC1)c1ccc(-c2cnc3c(NCc4cccc(Cl)c4)nc4ccccc4n23)cc1 [Example 2-7, 4-{4-[(3-chlorobenzyl)amino]imidazo[1,2-a]quinoxalin-1-yl}-N-cyclopropylbenzamide] to O=C(NC1CC1)c1ccc(-c2cnc3c(NCc4ccccc4)nc4ccccc4n23)cc1 [Example 2-16, 4-[4-(benzylamino)imidazo[1,2-a]quinoxalin-1-yl]-N-cyclopropylbenzamide], the IC50 falls from 222 nM to 67.5 nM (3.3-fold).

Going from O=C(NC1CC1)c1ccc(-c2cnc3c(NCCc4ccccc4)nc4ccccc4n23)cc1 [Example 2-8, N-cyclopropyl-4-{4-[(2-phenylethyl)amino]imidazo[1,2-a]quinoxalin-1-yl}benzamide] to O=C(NC1CC1)c1ccc(-c2cnc3c(NCCCc4ccccc4)nc4ccccc4n23)cc1 [Example 2-27, N-cyclopropyl-4-{4-[(3-phenylpropyl)amino]imidazo[1,2-a]quinoxalin-1-yl}benzamide], the IC50 rises from 169 nM to 282 nM (1.7-fold).

O=C(NC1CC1)c1ccc(-c2cnc3c(Nc4ccccc4)nc4ccccc4n23)cc1 [Example 2-9, N-cyclopropyl-4-[4-(phenylamino)imidazo[1,2-a]quinoxalin-1-yl]benzamide] and O=C(NC1CC1)c1ccc(-c2cnc3c(NCCOc4ccccc4)nc4ccccc4n23)cc1 [Example 2-29, N-cyclopropyl-4-{4-[(2-phenoxyethyl)amino]imidazo[1,2-a]quinoxalin-1-yl}benzamide] are within 1.5-fold of each other in IC50: 545 nM for the first, 443 nM for the second.

CCCCCNc1nc2ccccc2n2c(-c3ccc(C(=O)NC4CC4)cc3)cnc12 [Example 2-10, N-cyclopropyl-4-[4-(pentylamino)imidazo[1,2-a]quinoxalin-1-yl]benzamide] and CCNc1nc2ccccc2n2c(-c3ccc(C(=O)NC4CC4)cc3)cnc12 [Example 2-19, N-cyclopropyl-4-[4-(ethylamino)imidazo[1,2-a]quinoxalin-1-yl]benzamide] are within 1.5-fold of each other in IC50: 92.4 nM for the first, 94 nM for the second.

O=C(NC1CC1)c1ccc(-c2cnc3c(NCCCN4CCCC4=O)nc4ccccc4n23)cc1 [Example 2-11, N-cyclopropyl-4-(4-{[3-(2-oxopyrrolidin-1-yl)propyl]amino}imidazo[1,2-a]quinoxalin-1-yl)benzamide] and O=C(NC1CC1)c1ccc(-c2cnc3c(NCCCCN4CCCC4)nc4ccccc4n23)cc1 [Example 2-31, N-cyclopropyl-4-(4-{[4-(pyrrolidin-1-yl)butyl]amino}imidazo[1,2-a]quinoxalin-1-yl)benzamide] are within 1.5-fold of each other in IC50: 296 nM for the first, 321 nM for the second.

Going from COCCNc1nc2ccccc2n2c(-c3ccc(C(=O)NC4CC4)cc3)cnc12 [Example 2-12, N-cyclopropyl-4-{4-[(2-methoxyethyl)amino]imidazo[1,2-a]quinoxalin-1-yl}benzamide] to CN(C)CCCNc1nc2ccccc2n2c(-c3ccc(C(=O)NC4CC4)cc3)cnc12 [Example 2-20, N-cyclopropyl-4-(4-{[3-(dimethylamino)propyl]amino}imidazo[1,2-a]quinoxalin-1-yl)benzamide], the IC50 rises from 180 nM to 744 nM (4.1-fold). The first is the more potent here.

Compared with COc1ccccc1CNc1nc2ccccc2n2c(-c3ccc(C(=O)NC4CC4)cc3)cnc12 [Example 2-13, N-cyclopropyl-4-{4-[(2-methoxybenzyl)amino]imidazo[1,2-a]quinoxalin-1-yl}benzamide], O=C(NC1CC1)c1ccc(-c2cnc3c(NCc4ccccc4F)nc4ccccc4n23)cc1 [Example 2-14, N-cyclopropyl-4-{4-[(2-fluorobenzyl)amino]imidazo[1,2-a]quinoxalin-1-yl}benzamide] is 4.6-fold lower in IC50: 334 nM for the first, 72.1 nM for the second. The second is the more potent here.

Compared with O=C(NC1CC1)c1ccc(-c2cnc3c(NCc4ccc(F)cc4)nc4ccccc4n23)cc1 [Example 2-15, N-cyclopropyl-4-{4-[(4-fluorobenzyl)amino]imidazo[1,2-a]quinoxalin-1-yl}benzamide], NS(=O)(=O)c1ccc(CNc2nc3ccccc3n3c(-c4ccc(C(=O)NC5CC5)cc4)cnc23)cc1 [Example 2-25, N-cyclopropyl-4-{4-[(4-sulfamoylbenzyl)amino]imidazo[1,2-a]quinoxalin-1-yl}benzamide] is 2.8-fold higher in IC50: 56.3 nM for the first, 160 nM for the second. The first is the more potent here.

Compared with COc1ccc(CCNc2nc3ccccc3n3c(-c4ccc(C(=O)NC5CC5)cc4)cnc23)cc1 [Example 2-17, N-cyclopropyl-4-(4-{[2-(4-methoxyphenyl)ethyl]amino}imidazo[1,2-a]quinoxalin-1-yl)benzamide], NS(=O)(=O)c1ccc(CCNc2nc3ccccc3n3c(-c4ccc(C(=O)NC5CC5)cc4)cnc23)cc1 [Example 2-21, N-cyclopropyl-4-(4-{[2-(4-sulfamoylphenyl)ethyl]amino}imidazo[1,2-a]quinoxalin-1-yl)benzamide] is 12-fold lower in IC50: 565 nM for the first, 48.1 nM for the second.

Going from O=C(NC1CC1)c1ccc(-c2cnc3c(NCc4cccs4)nc4ccccc4n23)cc1 [Example 2-18, N-cyclopropyl-4-{4-[(thiophen-2-ylmethyl)amino]imidazo[1,2-a]quinoxalin-1-yl}benzamide] to O=C(NC1CC1)c1ccc(-c2cnc3c(NCc4cccnc4)nc4ccccc4n23)cc1 [Example 2-26, N-cyclopropyl-4-{4-[(pyridin-3-ylmethyl)amino]imidazo[1,2-a]quinoxalin-1-yl}benzamide], the IC50 rises from 46.6 nM to 99.6 nM (2.1-fold). The first is the more potent here.

Compared with O=C(NC1CC1)c1ccc(-c2cnc3c(NCCc4cccc(F)c4)nc4ccccc4n23)cc1 [Example 2-22, N-cyclopropyl-4-(4-{[2-(3-fluorophenyl)ethyl]amino}imidazo[1,2-a]quinoxalin-1-yl)benzamide], O=C(NC1CC1)c1ccc(-c2cnc3c(NCCc4ccncc4)nc4ccccc4n23)cc1 [Example 2-30, N-cyclopropyl-4-(4-{[2-(pyridin-4-yl)ethyl]amino}imidazo[1,2-a]quinoxalin-1-yl)benzamide] is 2.6-fold lower in IC50: 312 nM for the first, 121 nM for the second. The second is the more potent here.

First: O=C(NC1CC1)c1ccc(-c2cnc3c(NCC4CC4)nc4ccccc4n23)cc1 [Example 2-23, N-cyclopropyl-4-{4-[(cyclopropylmethyl)amino]imidazo[1,2-a]quinoxalin-1-yl}benzamide]
Second: O=C(NC1CC1)c1ccc(-c2cnc3c(NCCN4CCOCC4)nc4ccccc4n23)cc1 [Example 2-24, N-cyclopropyl-4-(4-{[2-(morpholin-4-yl)ethyl]amino}imidazo[1,2-a]quinoxalin-1-yl)benzamide]
The IC50 of the first is 5.3-fold lower: 24.1 nM for the first, 127 nM for the second. The first is the more potent here.

Going from O=C(NC1CC1)c1ccc(-c2cnc3c(NCc4ccc5c(c4)OCO5)nc4ccccc4n23)cc1 [Example 2-28, 4-{4-[(1,3-benzodioxol-5-ylmethyl)amino]imidazo[1,2-a]quinoxalin-1-yl}-N-cyclopropylbenzamide] to CS(=O)(=O)Nc1ccc(Nc2nc3ccccc3n3c(-c4ccc(C(=O)NC5CC5)cc4)cnc23)cc1 [Example 2-32, N-cyclopropyl-4-[4-({4-[(methylsulfonyl)amino]phenyl}amino)imidazo[1,2-a]quinoxalin-1-yl]benzamide], the IC50 rises from 61.4 nM to 202 nM (3.3-fold).
